The target of experiment [1] is T1, PARP-1 (Homo sapiens, UniProt P09874).
T1 construct: Full length His6-PARP-1 and His6-SUMO-PARP-10 proteins we expressed and purified; His6 (N); made in house
Description: Competition labeling of PARP-1 by 2-ad-BAD. It counts as binding. An excerpt: FIG. 8. Densitometry analyses of FIG. 3A panels (A,B) comparing the inhibitory effect of nucleotides and (B) panels (C,D) comparing inhibitory effect of PARP inhibitors on PARP-1 and PARP-10 labelling by 2-ad-BAD. TAMRA in-gel fluorescence was normalized to Coomassie staining, except for PARP-1 NAD^+ treated samples where relative to control TAMRA signal is reported due to auto-PARylation induced molecular weight shift and therefore not detectable Coomassie signal at PARP-1 molecular weight of ˜110 kDa. Data are mean±SEM of 3 independent experiments.
Treatments. Recombinant PARP-1 (250 nM), PARP-10 (250 nM) or AK1 (500 nM; Novus Biologicals) were diluted in 100 mM NaCl, 50 mM HEPES [pH 7.4], 4 mM MgCl2, 0.2 mM TCEP. PARP-1 reactions also contained 10 μg/mL of activated calf thymus DNA (Sigma-Aldrich D4522), unless otherwise noted. In experiments reported in FIG. 2, the samples were treated with 0.1 μM 2-ad-BAD or ad-olaparib for 10 min. In competition experiments reported in FIG. 3 and Figure S3, samples were first treated with 150 μM of indicated nucleotides for 10 minute and then with 0.3 μM 2-ad-BAD for additional 10 min. All treatments occurred at RT. Samples were then kept in the dark or irradiated for 5 min in the RPR-100 Photochemical Reactor (Rayonet) equipped with 350 nm lamps at 4° C.
Click Chemistry. 25 μL of each sample was mixed with 5 μL of fatty acid free BSA and SDS to give a final Click reaction concentration of 1 mg/mL and 1%, respectively. Click reactions were started by adding 15 μL of PBS based 3× click reaction mix (final 1× concentrations shown): 100 μM Tris[(1-benzyl-1H-1,2,3triazol-4-yl)methyl]amine (TBTA, Click Chemistry Tools), 1 mM CuSO4, 40 μM tetramethylrhodamine (TAMRA)-azide (Click Chemistry Tools), 1 mM Tris(2-carboxyethyl)phosphine hydrochloride (TCEP, Thermo Fisher) and 5% tert-Butyl alcohol to each sample, and let to proceed for 1 h at RT while gently shaking. Reactions were stopped by adding 4× Laemmli sample buffer and boiling at 95° C. for 5 min.
In gel fluorescence and staining. Samples were loaded to 10 or 12% SDS-polyacrylamide gels and run until the dye front left the gel. In-gel fluorescence was detected with ChemiDoc XRS+ (Biorad) using Rhodamine filter and then the gels were stained with Coomassie blue or Silver using standard protocols.

Experiment [2] concerns the target T1, PARP-1. The note with it: cited from earlier work.

T1 sequence (P09874 whole entry): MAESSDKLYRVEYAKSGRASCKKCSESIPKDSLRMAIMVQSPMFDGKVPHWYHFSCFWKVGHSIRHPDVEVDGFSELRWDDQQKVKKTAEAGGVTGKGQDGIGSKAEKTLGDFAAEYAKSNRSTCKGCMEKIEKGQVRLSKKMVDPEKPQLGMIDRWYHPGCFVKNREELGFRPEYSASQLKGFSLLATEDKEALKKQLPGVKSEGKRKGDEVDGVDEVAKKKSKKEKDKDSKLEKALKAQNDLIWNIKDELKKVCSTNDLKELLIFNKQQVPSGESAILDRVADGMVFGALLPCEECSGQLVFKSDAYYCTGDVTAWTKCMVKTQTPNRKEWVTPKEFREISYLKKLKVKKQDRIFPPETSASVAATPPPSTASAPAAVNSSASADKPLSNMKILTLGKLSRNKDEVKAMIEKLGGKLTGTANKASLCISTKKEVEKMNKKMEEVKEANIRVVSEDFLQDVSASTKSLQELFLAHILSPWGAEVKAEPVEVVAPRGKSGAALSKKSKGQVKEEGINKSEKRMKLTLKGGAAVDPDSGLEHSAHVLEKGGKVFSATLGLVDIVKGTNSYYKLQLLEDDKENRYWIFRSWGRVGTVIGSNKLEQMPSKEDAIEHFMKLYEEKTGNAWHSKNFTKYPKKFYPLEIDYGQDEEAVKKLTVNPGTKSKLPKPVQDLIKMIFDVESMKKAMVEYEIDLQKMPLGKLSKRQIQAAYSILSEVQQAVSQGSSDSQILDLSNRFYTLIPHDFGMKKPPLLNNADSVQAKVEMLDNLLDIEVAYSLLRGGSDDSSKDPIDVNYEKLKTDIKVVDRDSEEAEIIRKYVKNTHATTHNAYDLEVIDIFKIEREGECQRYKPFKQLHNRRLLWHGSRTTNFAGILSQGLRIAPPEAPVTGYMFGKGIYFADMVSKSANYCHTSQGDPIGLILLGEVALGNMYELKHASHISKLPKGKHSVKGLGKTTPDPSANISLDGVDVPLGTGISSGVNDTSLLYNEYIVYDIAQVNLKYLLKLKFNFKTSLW

With `NC(=O)c1cccc([C@@H]2O[C@H](COP(=O)(O)OP(=O)(O)OC[C@H]3O[C@@H](n4cnc5c(N)ncnc54)[C@H](O)[C@@H]3O)[C@@H](O)[C@H]2O)c1` [BAD, benzamide adenine dinucleotide], the “block of 2-ad-BAD labeling of PARP-1 by nucleotides” value at PARP-1 [1] (150 μM nucleotide, 0.3 μM 2-ad-BAD) was “reduced”. Further, the “dose-dependent block of 2-ad-BAD labeling of PARP-1” value at PARP-1 [1] (competitor dose series) is listed as “dose-dependently block the labeling of PARP-1”. Also, at PARP-1 [2], the “DNA dependence of binding to PARP-1” value is recorded as “DNA-dependent”; the “binding to PARP-1 and inhibition of its enzymatic activity” value was “binds to PARP-1 and inhibits its enzymatic activity”.

The values are drawn from patent US12441757B2, “Platform for screening NAD+ binding proteins in a cellular context” (OREGON HEALTH & SCIENCE UNIVERSITY, priority 2020, dated 2025).
